# Results: patent US20240239752A1, “BICYCLIC HETEROAROMATIC INHIBITORS OF KLK5” (BioCryst Pharmaceuticals, Inc., priority 2021, published 2024)
# Target: T1, recombinant human KLK5 (Homo sapiens, UniProt Q9Y337)
# T1 construct: purchased Novoprotein or R&D Systems C415 or 1108-SE
# T1 sequence (Q9Y337 23-293): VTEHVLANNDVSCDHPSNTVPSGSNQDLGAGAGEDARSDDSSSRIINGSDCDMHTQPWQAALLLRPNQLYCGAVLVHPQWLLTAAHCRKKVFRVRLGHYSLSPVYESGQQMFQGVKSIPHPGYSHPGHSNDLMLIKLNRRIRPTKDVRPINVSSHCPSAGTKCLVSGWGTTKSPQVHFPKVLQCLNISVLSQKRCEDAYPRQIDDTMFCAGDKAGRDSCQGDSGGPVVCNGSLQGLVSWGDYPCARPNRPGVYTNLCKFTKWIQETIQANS
# Assay: Kallikrein (KLK) 5 enzymatic assay (Boc-VPR-AMC fluorogenic substrate)
# Assay type: biochemical
# Conditions: recombinant human KLK5 0.1 μg/well, Boc-VPR-AMC 100 μM, pH 7.5, room temperature, 1% DMSO; tested a minimum of three times
# From the text: Kallikrein-5 (KLK5) is a member of the serine protease family of proteolytic enzymes, confirmed to have trypsin-like activity (Michael I P, et al. Biochemical and enzymatic characterization of human kallikrein 5 (hK5), a novel serine protease potentially involved in cancer progression (J. Biol. Chem. 2005 Apr. 15; 280 (15): 14628-35). Boc-VPR-AMC is a fluorogenic peptide substrate composed of the short peptide chain, Valine-Proline-Arginine (VPR) and the fluorophore, 7-amino-4-methylcoumarin (AMC). KLK5 is able to cleave the fluorogenic peptide substrate Boc-VPR-AMC, releasing the AMC fluorophore, which causes a fluorescent emission in proportion with the enzymatic activity of KLK5. The KLK5 enzymatic activity is monitored by measuring fluorescent emission at wavelengths of 380 nm (excitation) and 460 nm (emission).
# The IC50 value of compounds against KLK5 (i.e., the concentration of the compound that inhibits 50% of the enzymatic activity) was calculated according to the procedure reported by R&D systems (Recombinant human KLK5, Catalog Number: 1108-SE), with the exception the pH of the assay was modified from 8.0 to 7.5. Specifically, recombinant human KLK5 (Novoprotein Catalog #C415 or R&D systems Catalog #1108-SE) and fluorogenic peptide Boc-VPR-AMC substrate (R&D Catalog #ES011) were each separately diluted in assay buffer (0.1 M NaH2PO4 buffer, pH 7.5). The compounds of the disclosure were dissolved in DMSO at a concentration of 10 mM. A portion of this stock solution was added to the recombinant human KLK5 solution to provide a desired concentration of the compounds and the mixture was incubated at room temperature. The reaction was initiated by the addition of the fluorogenic peptide substrate at room temperature. The final concentration of recombinant human KLK5 was 0.1 μg/well and the final concentration of the fluorogenic substrate was 100 μM (final volume of 100 μL, 1% DMSO). The assays were performed in 96 well F16 Black Maxisorp Plate (Nunc Catalog #475515). Controls included assay buffer alone and enzyme solutions to which DMSO was added. The reaction rates were measured spectrophotometrically by excitation at 380 nm and emission at 460 nm on a Biotek Synergy H1 plate reader.
# The reaction rate for enzyme alone was compared to the reaction rate of enzyme in the presence of compound and the percent inhibition was calculated as shown below:
# Percent Inhibition=[Rate with inhibitor/Rate without inhibitor)]×100
# An IC50 indicates a compound concentration that inhibits 50% of the enzymatic activity. Compounds were tested a minimum of three times.
row,Structure (SMILES),IC50 [µM]
1,"CC(C)n1nc(COc2ccccc2CC(=O)O)c2cc(-c3cccc4c(N)nn(C)c34)ccc21 [Compound 54c, 2-(2-((3′-amino-1-isopropyl-1′-methyl-1H, 1′H-[5,7′-biindazol]-3-yl)methoxy)phenyl)acetic acid]",> 10
2,"CC(C)n1nc(COc2ccccc2CC(=O)O)c2cc(-c3ccc4ncc(N)n4n3)ccc21 [Compound 55c, 2-(2-((5-(3-aminoimidazo[1,2-b]pyridazin-6-yl)-1-isopropyl-1H-indazol-3-yl)methoxy)phenyl)acetic acid]",> 10
3,"CC(C)n1nc(COc2ccccc2CC(=O)O)c2cc(-c3cccc4cnc(N)cc34)ccc21 [Compound 56c, 2-(2-((5-(3-aminoisoquinolin-5-yl)-1-isopropyl-1H-indazol-3-yl)methoxy)phenyl)acetic acid]",> 10
4,"CC(C)n1nc(COc2ccccc2CC(=O)O)c2cc(-c3ccc4c(N)n[nH]c4c3)ccc21 [Compound 67c, 2-(2-((3′-amino-1-isopropyl-1H, 1′H-[5,6′-biindazol]-3-yl)methoxy)phenyl)acetic acid]",> 10
5,"CC(C)n1nc(COc2ccccc2CC(=O)O)c2cc(-c3cnc4[nH]nc(N)c4c3)ccc21 [Compound 68c, 2-(2-((5-(3-amino-1H-pyrazolo[3,4-b]pyridin-5-yl)-1-isopropyl-1H-indazol-3-yl)methoxy)phenyl)acetic acid]",> 10
6,"CC(C)n1nc(COc2ccccc2CC(=O)O)c2cc(-c3ccc4cccc(N)c4c3)ccc21 [Compound 70c, 2-(2-((5-(8-aminonaphthalen-2-yl)-1-isopropyl-1H-indazol-3-yl)methoxy)phenyl)acetic acid]",> 10
7,"COc1ncc(N)c2cc(-c3ccc4c(c3)c(COc3ccccc3CC(=O)O)nn4C(C)C)ccc12 [Compound 73d, 2-(2-((5-(4-amino-1-methoxyisoquinolin-6-yl)-1-isopropyl-1H-indazol-3-yl)methoxy)phenyl)acetic acid]",> 10
8,"CC(C)n1nc(COc2ccccc2CC(=O)O)c2cc(-c3ccc4cnc(N)cc4c3)ccc21 [Compound 75c, 2-(2-((5-(3-aminoisoquinolin-6-yl)-1-isopropyl-1H-indazol-3-yl)methoxy)phenyl)acetic acid]",> 10
9,"CC(C)n1nc(COc2ccccc2CC(=O)O)c2cc(-c3ccc4c(c3)C(N)CO4)ccc21 (stereo not shown) [Compound 76c, 2-(2-((5-(3-amino-2,3-dihydrobenzofuran-5-yl)-1-isopropyl-1H-indazol-3-yl)methoxy)phenyl)acetic acid]",> 10
10,"CC(C)n1nc(COc2ccccc2CC(=O)O)c2cc(-c3ccc4c(c3)C(O)CC4)ccc21 (stereo not shown) [Compound 77c, 2-(2-((5-(3-hydroxy-2,3-dihydro-1H-inden-5-yl)-1-isopropyl-1H-indazol-3-yl)methoxy)phenyl)acetic acid]",> 10
11,"CC(C)n1nc(COc2ccccc2CC(=O)O)c2cc(-c3ccc4c(c3)[C@H](N)CO4)ccc21 [Compound 79c, (S)-2-(2-((5-(3-amino-2,3-dihydrobenzofuran-5-yl)-1-isopropyl-1H-indazol-3-yl)methoxy)phenyl)acetic acid]",> 10
12,"CC(C)n1nc(COc2ccccc2CC(=O)O)c2cc(-c3ccnc4c(N)nccc34)ccc21 [Compound 80d, 2-(2-((5-(8-amino-1,7-naphthyridin-4-yl)-1-isopropyl-1H-indazol-3-yl)methoxy)phenyl)acetic acid]",1 to 10

# Now from value to compound:
row,IC50 [µM],Structure (SMILES)
1,< 1,"Cn1nc(COc2ccccc2CC(=O)O)c2cc(-c3ccc4ccnc(N)c4c3)ccc21 [Compound 57b, 2-(2-((5-(1-aminoisoquinolin-7-yl)-1-methyl-1H-indazol-3-yl)methoxy)phenyl)acetic acid]"
2,< 1,"Cn1nc(COc2ccccc2CC(=O)O)c2cc(-c3cccc4c(N)nccc34)ccc21 [Compound 58b, 2-(2-((5-(1-aminoisoquinolin-5-yl)-1-methyl-1H-indazol-3-yl)methoxy)phenyl)acetic acid]"
3,< 1,"N=C(N)c1cccc(-c2ccc3c(c2)c(COc2ccccc2CC(=O)O)nn3C2CC2)c1 [Compound 59d, 2-(2-((5-(3-carbamimidoylphenyl)-1-cyclopropyl-1H-indazol-3-yl)methoxy)phenyl)acetic acid]"
4,< 1,"Nc1nccc2ccc(-c3ccc4c(c3)c(COc3ccccc3CC(=O)O)nn4C3CC3)cc12 [Compound 60b, 2-(2-((5-(1-aminoisoquinolin-7-yl)-1-cyclopropyl-1H-indazol-3-yl)methoxy)phenyl)acetic acid]"
5,< 1,"COc1ccc(CC(=O)O)c(OCc2nn(C(C)C)c3ccc(-c4ccc5ccnc(N)c5c4)cc23)c1 [Compound 61b, 2-(2-((5-(1-aminoisoquinolin-7-yl)-1-isopropyl-1H-indazol-3-yl)methoxy)-4-methoxyphenyl)acetic acid]"
6,< 1,"Cc1ccc(CC(=O)O)c(OCc2nn(C(C)C)c3ccc(-c4ccc5ccnc(N)c5c4)cc23)c1 [Compound 62c, 2-(2-((5-(1-aminoisoquinolin-7-yl)-1-isopropyl-1H-indazol-3-yl)methoxy)-4-methylphenyl)acetic acid]"
7,1 to 10,"CC(C)n1nc(C(=O)Nc2ccccc2CC(=O)O)c2cc(-c3ccc4ccnc(N)c4c3)ccc21 [Compound 63d, 2-(2-(5-(1-aminoisoquinolin-7-yl)-1-isopropyl-1H-indazole-3-carboxamido)phenyl)acetic acid]"
8,< 1,"CC(C)n1nc(COc2ccccc2CC(=O)O)c2cc(-c3cccc(C(=N)N)c3F)ccc21 [Compound 64d, 2-(2-((5-(3-carbamimidoyl-2-fluorophenyl)-1-isopropyl-1H-indazol-3-yl)methoxy)phenyl)acetic acid]"
9,< 1,"Nc1nccc2c(-c3ccc4c(c3)c(COc3ccccc3CC(=O)O)nn4C3CC3)cccc12 [Compound 65b, 2-(2-((5-(1-aminoisoquinolin-5-yl)-1-cyclopropyl-1H-indazol-3-yl)methoxy)phenyl)acetic acid]"
10,< 1,"COc1ccc(CC(=O)O)c(OCc2nn(C3CC3)c3ccc(-c4ccc5ccnc(N)c5c4)cc23)c1 [Compound 66e, 2-(2-((5-(1-aminoisoquinolin-7-yl)-1-cyclopropyl-1H-indazol-3-yl)methoxy)-4-methoxyphenyl)acetic acid]"
11,< 1,"Nc1nccc2c(-c3ccc4c(c3)c(COc3ccccc3CC(=O)O)nn4C3CCC3)cccc12 [Compound 69b, 2-(2-((5-(1-aminoisoquinolin-5-yl)-1-cyclobutyl-1H-indazol-3-yl)methoxy)phenyl)acetic acid]"
12,< 1,"COc1ccc(CC(=O)O)c(OCc2nn(C)c3ccc(-c4ccc5ccnc(N)c5c4)cc23)c1 [Compound 71d, 2-(2-((5-(1-aminoisoquinolin-7-yl)-1-methyl-1H-indazol-3-yl)methoxy)-4-methoxyphenyl)acetic acid]"
13,< 1,"COc1ccc(CC(=O)O)c(OCc2nn(C)c3ccc(-c4cccc5c(N)nccc45)cc23)c1 [Compound 72b, 2-(2-((5-(1-aminoisoquinolin-5-yl)-1-methyl-1H-indazol-3-yl)methoxy)-4-methoxyphenyl)acetic acid]"
14,1 to 10,"COc1cnc(N)c2cc(-c3ccc4c(c3)c(COc3ccccc3CC(=O)O)nn4C(C)C)ccc12 [Compound 74d, 2-(2-((5-(1-amino-4-methoxyisoquinolin-7-yl)-1-isopropyl-1H-indazol-3-yl)methoxy)phenyl)acetic acid]"
15,1 to 10,"Cc1ccc2c(N)nccc2c1-c1ccc2c(c1)c(COc1ccccc1CC(=O)O)nn2C(C)C [Compound 78d, 2-(2-((5-(1-amino-6-methylisoquinolin-5-yl)-1-isopropyl-1H-indazol-3-yl)methoxy)phenyl)acetic acid]"
16,< 1,"COc1c(-c2ccc3c(c2)c(COc2ccccc2CC(=O)O)nn3C(C)C)ccnc1C(=N)N [Compound 81d, 2-(2-((5-(2-carbamimidoyl-3-methoxypyridin-4-yl)-1-isopropyl-1H-indazol-3-yl)methoxy)phenyl)acetic acid]"
